Positions of bridges follow the written chain, without caps; N, C: chain ends. Residues, ends and D or L forms follow the SMILES beside them.
Assays:
[1] = tested on: S. aureus ATCC 25923; assay: Post antibiotic effect (PAE); assay type: cell-based, Staphylococcus aureus; conditions: 2 h exposure at 1 × to 8 × MIC, 1 × 10^8 CFU/mL, triplicate
Description: (§1) PAE was performed based on the method of Zhang et al. (Zhang et al. [2014]). S. aureus E48, S. aureus ATCC 25923 and S. aureus ATCC 43300 were cultured at 37 °C in MHB medium to the log-phase. Then, the diluted cells (1 × 10^8 CFU/mL) were exposed to NZX with final concentration of 1 × , 2 × , 4 × and 8 × MIC in the 48-well plates for 2 h at 37 °C. After incubation, NZX were removed by diluting 1:1000 with MHB medium. Viable counts were determined immediately after drug reconstruction and at 1–2 h interval for at least 10 h. PAE determination was calculated as PAE (h) = T-C, where T is the time (h) that required to increase by tenfold for the drug-treated viable count from the moment of drug reconstruction and C is the time (h) required to increase by tenfold for cell density without treatment. The experiments were conducted in triplication.

[2] = tested on: S. aureus E48; assay: Post antibiotic effect (PAE); assay type: cell-based, Staphylococcus aureus; conditions: 2 h exposure at 1 × to 8 × MIC, 1 × 10^8 CFU/mL, triplicate
Description: as §1

[3] = tested on: S. aureus ATCC 25923; assay: Mutant prevention concentration (MPC) on MHA plates; assay type: cell-based, Staphylococcus aureus; conditions: 1 × 10^10 CFU/mL, 37 °C, 72 h, each concentration three times
Description: (§2) Minimal Inhibitory Concentration (MIC), Minimal Bactericidal Concentration (MBC) and Mutant Prevention Concentration (MPC).
(§3) MPCs of NZX against the test S. aureus strain were determined as described by Plowgian et al., with some modification (Plowgian et al. [2019]). In brief, S. aureus cells were cultured to mid-log phase in Mueller–Hinton broth (MHB) medium. Then the suspensions were centrifuged (4000 rpm for 5 min) and the pellets were collected and diluted to a final concentration of 1 × 10^10 CFU/mL with MHB. […] All plates were incubated at 37 ^∘C for 72 h and the concentration corresponding to the plate with no bacterial growth was regarded as the provisional mutant prevention concentration (MPCpr). […] Lincomycin and ceftiofur were set as antibiotic controls, respectively. Each concentration was conducted three times.

[4] = tested on: S. aureus ATCC 43300; assay: as above; assay type: cell-based, Staphylococcus aureus; conditions: 1 × 10^10 CFU/mL, 37 °C, 72 h, each concentration three times
Description: as §2, §3

[5] = tested on: S. aureus E48; assay: as above; assay type: cell-based, Staphylococcus aureus; conditions: 1 × 10^10 CFU/mL, 37 °C, 72 h, each concentration three times
Description: as §2, §3

[6] = tested on: S. aureus ATCC 25923; assay: Mouse mastitis model, bacterial counts in mammary tissues; assay type: in vivo; conditions: 24 h after treatment; for bacteria reduction in mammary tissues: vs PC group
Excerpt: (§4) The 7 to 8-weeks old ICR mice (80 females, 40 males) were housed in independent ventilated cages, and feed with autoclaved laboratory food and water. Female mice in heat were put into the cage of males (females:males, 2:1) overnight and checked for vaginal plugs at the following morning to induce pregnancy. ICR-lactating mice were used at 6 to 8 days after the birth of the offspring. The mouse mastitis model was established as previously described (Li et al. [2017]). Mice were randomly divided into nine groups: NC group (uninfected group), PC group (infected but without treatment), NZX groups (25, 50, 100, 200 and 400 μg/gland, respectively), lincomycin group (100 μg/gland), and ceftiofur group (100 μg/gland). Each experimental group has six independent experiments with three mice. Specially, the pups were removed 1 h before the intramammary injection of both L4 (on the left) and R4 (on the right) abdominal mammal glands. A 100 μL of S. aureus strains (1 × 10^6 CFU/mL) was administrated to mice in PC, NZX, lincomycin and ceftiofur groups, and the same volume of sterile physiological saline was administrated to mice in NC group. Glands of 3 h post-infection were injected with sterile physiological saline, NZX, lincomycin, or ceftiofur. The mice were euthanized after the treatment for 24 h, and their mammary glands were dissected, weighed, and homogenized. The animal experiments were performed according to the Animal Care and Use Committee of the Feed Research Institute, Chinese Academy of Agricultural Sciences (Permit Number: AEC-CAAS-20090609) in accordance with the Guidelines for Animal Experimentation.
(§5) After mouse sacrifice, one part of mammary tissue was taken for bacterial count, and the other part was used for the histopathological analysis. Specifically, tissues were aseptically collected immediately from the dead mice, weighted, homogenized with sterile physiological saline (1:1, W:V). Next, the homogenates were serially diluted (ten-fold dilutions) in physiological saline, plated on MHA plate, and then cultured overnight at 37 °C. The bacterial number on each plate was counted and the results were expressed as Log10 CFU per gram of mammary tissues. In addition, mammary tissues were fixed in 4% paraformaldehyde, then embedded in paraffin, cut into 5 μm sections, and later stained by hematoxylin–eosin (H&E). The stained sections were observed under a light microscope (× 200) for pathological morphology and scoring of mammary tissues (Schmidt et al. [1992]).

[7] = tested on: S. aureus ATCC 43300; assay: as above; assay type: in vivo; conditions: 24 h after treatment, vs PC group
Excerpt: as §4, §5

[8] = tested on: S. aureus E48; assay: as above; assay type: in vivo; conditions: 3 h post-infection, 24 h after treatment, vs PC group
Excerpt: as §4, §5

[9] = tested on: S. aureus ATCC 25923; assay: Cell membrane permeability, PI staining by flow cytometry; assay type: cell-based, Staphylococcus aureus
Description: (§6) Flow cytometry was used for the analysis of the effects of NZX on the penetration rate of the S. aureus cell membrane (Yang et al. [2019]). The S. aureus cells in mid-log phase were adjusted to 1 × 10^8 CFU/mL and the bacteria suspensions were treated with 1 × , 2 × and 4 × MIC of NZX for 2 h at 37 °C. In addition, the cell suspensions were incubated with 2 × MIC of NZX for 0 h, 0.5 h, 1 h and 2 h, respectively. After incubation, the cells were centrifuged at 4000 rpm at 4 °C for 5 min, washed twice with sterile PBS, and pellets were resuspended in 1 mL of PBS. Next, cells were stained with 50 µg/mL propidium iodide (PI) for 30 min in the dark at room temperature, and the proportion of cells with PI positive cells to the total cells were analyzed by flow-cytometry (BD, USA). Lincomycin and ceftiofur were used as positive controls and PBS as negative control. Three replicates for each treatment were conducted.

[10] = tested on: S. aureus E48; assay: as above; assay type: cell-based, Staphylococcus aureus
Description: as §6

[11] = 2 × MIC, range over 0, 0.5, 1 and 2 h
[12] = 2 h, range over 1 × MIC, 2 × MIC and 4 × MIC
[13] = range over 25 ~ 400 μg/gland intramammary

| Structure (SMILES) | mean PAE range [1] | mean PAE range [2] | MPC [3] | MPC [4] | MPC [5] | bacteria reduction in mammary tissues ([6]; 100 μg/gland intramammary) | bacteria reduction in mammary tissues ([7]; 100 μg/gland intramammary) | bacteria reduction in mammary tissues ([8]; 100 μg/gland intramammary) | percentage of PI-positive cells [9, 11] | percentage of PI-positive cells [9, 12] | percentage of PI-positive cells [10, 11] | percentage of PI-positive cells [10, 12] | bacterial loads in mammary tissues ([6]; 400 μg/gland intramammary) | bacteria reduction in mammary tissues ([6]; range over 25–400 μg/gland intramammary) | bacteria reduction in mammary tissues ([7]; 400 μg/gland intramammary) | bacteria reduction in mammary tissues [7, 13] | bacteria reduction in mammary tissues [8, 13] |
| --- | --- | --- | --- | --- | --- | --- | --- | --- | --- | --- | --- | --- | --- | --- | --- | --- | --- |
| CO/N=C(\C(=O)N[C@@H]1C(=O)N2C(C(=O)O)=C(CSC(=O)c3ccco3)CS[C@H]12)c1csc(N)n1 [Ceftiofur] | 1.40 to 2.29 h | 1.30 to 2.10 h | 234.24 µM | 7.32 µM | 5.49 µM | 6.99 Log10 CFU/g | 4.82 Log10 CFU/g | 5.70 Log10 CFU/g | 1.35–4.31% | 1.55–3.42% | 2.61–23.53% | 8.56–21.1% | – | – | – | – | – |
| CC[C@H](C)[C@@H]1NC(=O)[C@H](CO)NC(=O)[C@H](CCCCN)NC(=O)[C@@H]2CSSC[C@@H](C(=O)N[C@@H](Cc3ccc(O)cc3)C(=O)O)NC(=O)[C@H](CCCCN)NC(=O)[C@@H]3CSSC[C@H](NC(=O)[C@H](CCC(N)=O)NC(=O)[C@H]([C@@H](C)CC)NC(=O)[C@H](CC(=O)O)NC(=O)[C@H](CC(=O)O)NC(=O)[C@H](CCC(=O)O)NC(=O)[C@H](CO)NC(=O)[C@H](Cc4c[nH]c5ccccc45)NC(=O)[C@@H]4CCCN4C(=O)CNC(=O)[C@H](CC(N)=O)NC(=O)[C@@H](NC(=O)CNC(=O)[C@H](Cc4ccccc4)NC(=O)CN)CSSC[C@H](NC(=O)[C@H](Cc4ccc(O)cc4)NC(=O)CNC(=O)CNC(=O)[C@H](CCCCN)NC(=O)[C@H](Cc4ccc(O)cc4)NC(=O)CNC(=O)[C@H](CCCCN)NC1=O)C(=O)N[C@@H](C)C(=O)N[C@@H](CCCNC(=N)N)C(=O)NCC(=O)NCC(=O)N[C@@H](Cc1ccccc1)C(=O)N[C@@H](C(C)C)C(=O)N3)C(=O)N[C@@H](Cc1c[nH]cn1)C(=O)N[C@@H](CC(N)=O)C(=O)N[C@@H](Cc1c[nH]cn1)C(=O)N2 [NZX] (H-GFGCNGPWSEDDIQCHNHCKSIKGYKGGYCARGGFVCKCY-OH; disulfide 4-30, 15-37, 19-39; N-terminus and C-terminus assumed) | 1.67 to 3.34 h | 1.14 to 3.60 h | 3.68 µM | 1.18 µM | 1.47 µM | 4.73 Log10 CFU/g | 3.47 Log10 CFU/g | 8.34 Log10 CFU/g | 1.93 to 54.06% | 12.9–48.0% | 2.61 to 72.93% | 25.6–70.3% | eliminated | 3.35–11.09 Log10 CFU/g | 8.81 Log10 CFU/g | 0.66 ~ 8.81 Log10 CFU/g | 0.77–8.34 Log10 CFU/g |
| CCC[C@@H]1C[C@@H](C(=O)N[C@@H]([C@H]2O[C@H](SC)[C@H](O)[C@@H](O)[C@H]2O)[C@@H](C)O)N(C)C1 [Lincomycin] | 0.94 to 1.52 h | 2.02 to 3.27 h | > 1111.04 µM | – | > 1111.04 µM | 5.23 Log10 CFU/g | – | 7.37 Log10 CFU/g | – | 0.45 to 0.63% | 0.13–2.61% | 0.08 to 0.09% | – | – | – | – | – |

Source: publication PMC11636681, “Pharmacokinetics and pharmacodynamics of antibacterial peptide NZX in Staphylococcus aureus mastitis mouse model” (Applied Microbiology and Biotechnology, 2024)
